Reference: patent publication US9439980B2, “Thymidylate kinase fusions and uses thereof” (priority 2008, dated 2016)

Tested on: Jurkat cells
Test: HPLC determination of AZT metabolites in cells treated with 100 μM AZT
Type: cell-based, human
Settings: 36 hrs
Method: The cells were cultured in the presence of 100 μM AZT for 36 hrs. 10^7 cells were homogenized by sonication in 100 μl of 5% (w/v) trichloroacetic acid. The supernatant is collected after homogenate had been centrifuged at 10,000×g for 15 min at 4° C. The trichloroacetic acid was removed by extraction with an equal volume of 20% tri-n-octylamine in pentane. The neutralized aqueous fraction is directly injected into HPLC. Separation of AZT and its metabolites was performed on a C18 column (Waters) with a mobile phase composed of 0.2 M phosphate buffer containing 4 mM tetrabutylammonium hydrogen sulfate (pH 7.5) and acetonitrile in the ratio of 97:3 (v/v). The mobile phase was pumped at a flow rate of 1.5 ml/min. The UV absorbance was monitored at 270 nm. Five million cell equivalents were injected and analyzed in triplicate.

## Cc1cn([C@H]2C[C@H](N=[N+]=[N-])[C@@H](CO)O2)c(=O)[nH]c1=O [AZT, 3′-azido-3′-deoxythymidine]
  conversion ratio of AZT-TP to AZT-MP in non-transduced cells: 0.02
